Where two headings read alike, the source gives them in different places.

For data set [1] the following is noted: BCS class I drug substance; cited from earlier work.
For data set [2] the following is noted: cited from earlier work; for oral bioavailability: significant first pass metabolism.
A short description of data set [3]: Comparative pharmacokinetic study of sublingual thin film and oral formulation in rabbits. The class given is in vivo. As to conditions: rabbit, blood, male New Zealand White Rabbits. An excerpt: Animals. […] No non-disintegrated film fragments were observed.
For data set [4] the following is noted: presence of food; cited from earlier work.
The conditions of data set [5]: in vitro, human; cited from earlier work.
Setting [6] is: other: sublingual, sublingual route, oral thin film, 10 mg.
Where [7] appears, read: oral dosing by gavage as a solution.

As to `CCCCCCCC(=O)N[C@H](CN1CCCC1)[C@H](O)c1ccc2c(c1)OCCO2` [eliglustat], in data set [1], the solubility result is “high”. Further, the absolute bioavailability in data set [2] (CERDELGA capsule, CHMP European Assessment report) is 4.49%±4.13. Also, the oral bioavailability result in data set [2] is reported as “less than 5%”; in data set [2] (listed as Eliglustat), less than 5%.

A word on the AUC(0-inf): it is total exposure, with the tail of the curve extrapolated. Usually AUC(0-t) stands for the area under the concentration-time curve up to a stated or last time point. The low end stands for less exposure, the high end for more exposure. For orientation: Cmax means the peak of the concentration-time curve. For orientation: MRT last means the average time that molecules of a dose stay in the body. What is called Tmax is the time from dosing to the highest level. What is called half-life is the time needed for the level to fall by half in the phase considered. Low readings indicate rapid decline, high ones slow decline. For the compound `CCCCCCCC(=O)N[C@H](CN1CCCC1)[C@H](O)c1ccc2c(c1)OCCO2.O=C(O)C(O)C(O)C(=O)O` [Eliglustat tartrate, N-((1R,2R)-1-(2,3-dihydrobenzo [b] [1,4]dioxin-6-yl)-1-hydroxy-3-(pyrrolidin-1-yl)propan-2-yl) octanamide (2R,3R)-2,3-dihydroxysuccinate], in data set [3] (setting [6]), the AUC(0-inf) turned out to be 232 ± 106 ng·h/mL, the exposure AUC(0-t) was found to be 226 ± 107 ng·h/mL, the concentration peaked (Cmax) at 79.4 ± 51.6 ng/mL and the MRT last is 2.72 ± 0.359 h. In data set [3] (setting [6]), the Tmax was found to be 0.667 ± 0.289 h and the half-life is 2.55 ± 0.511 h. For the same compound, in data set [3] (setting [7]), the total exposure AUC(0-inf) worked out at 9.6 ± 6.04 ng·h/mL, the AUC(0-t) amounted to 6.31 ± 4.85 ng·h/mL, the Cmax is 3.31 ± 2.11 ng/mL and the mean residence time MRT last stood at 1.53 ± 0.546 h. Also, in data set [3] (setting [7]), the Tmax turned out to be 0.583 ± 0.382 h and the half-life was 2.35 ± 0.341 h. Besides, the “effect of food on extent of absorption” value in data set [4] was “did not affect the extent of absorption”.

Turning to `CCCCCCCC(=O)N[C@H](CN1CCCC1)[C@H](O)c1ccc2c(c1)OCCO2` [Genz-99067], the “first-pass effect indicated by metabolic stability” value in data set [5] is “significant first-pass effect”.

The record behind these values is patent publication US12472144B2, “Pharmaceutical composition comprising eliglustat” (Amneal Pharmaceuticals LLC, priority 2017, dated 2025).
